This experiment deals with T1, PD-1/PD-L1 interaction (Homo sapiens, UniProt Q9NZQ7).
T1 construct: Tag1 or Tag2 (undisclosed kit tag); purchased Cisbio
Put plainly: Cisbio PD-1/PD-L1 Homogeneous Time-Resolved Fluorescence (HTRF) binding assay. The following applies: for IC50: read-out: Reported IC50. The source says: The ability of compounds of the disclosure to inhibit the PD-1/PD-L1 interaction was investigated using a Cisbio PD-1/PD-L1 Homogeneous Time-Resolved Fluorescence (HTRF) binding assay (https://ca.cisbio.net/human-pd1-pd-l1-biochemical-binding-assay-44666).
With the assay, the interaction between PD-L1 and PD-1 is detected by using anti-Tag1 labeled with Europium (HTRF donor) and anti-Tag2 labeled with XL665 (HTRF acceptor). When the donor and acceptor antibodies are brought into close proximity due to PD-L1 and PD-1 binding, excitation of the donor antibody triggers fluorescence resonance energy transfer (FRET) towards the acceptor antibody, which in turn emits specifically at 665 nm. This specific signal is directly proportional to the extent of PD-1/PD-L1 interaction. Thus, a compound blocking the PD-1/PD-L1 interaction causes a reduction in the HTRF signal.
The assay was carried out in accordance with the product insert.

Like-named read-outs stand apart in the source and are kept apart here. Where only a bound is given, the exact number is not on record here.

T1 sequence (Q9NZQ7 19-238 limits assumed): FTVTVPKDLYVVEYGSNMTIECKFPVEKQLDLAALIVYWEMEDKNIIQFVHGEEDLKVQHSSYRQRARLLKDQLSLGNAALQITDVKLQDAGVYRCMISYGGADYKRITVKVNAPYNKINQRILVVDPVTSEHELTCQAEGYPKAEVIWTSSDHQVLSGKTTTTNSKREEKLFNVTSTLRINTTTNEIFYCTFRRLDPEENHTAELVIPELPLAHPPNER

On to `O=C(Cc1ccccc1)N1CCN(Cc2csc(NC[C@@H]3CCCN3Cc3ccc(Br)cc3)n2)CC1` [Compound 2463-262], for which the IC50 (Table 8, Run: Crude) came to 3.1 µM.

Turning to `O=C(CCc1nc2ccccc2[nH]1)N1CCN(Cc2csc(NC[C@@H]3CCCN3Cc3ccc(Br)cc3)n2)CC1` [Compound 2678-2], the 50% inhibitory concentration (IC50) (Table 8, Run: Pure) worked out at 1.9 µM.

Take `O=C(CCc1nc2ccccc2[nH]1)N1CCN(Cc2csc(NC[C@@H]3CCCN3Cc3ccc(F)cc3)n2)CC1` [Compound 2678-3]: the IC50 (Table 8, Run: Pure) was found to be 7 µM.

For the molecule `COc1ccc(CN2CCC[C@H]2CNc2nc(CN3CCN(C(=O)CCc4nc5ccccc5[nH]4)CC3)cs2)cc1OC` [Compound 2678-5], the IC50 (Table 8, Run: Pure) amounted to 9.2 µM.

In the case of `COc1cc(C(=O)N2CCN(Cc3csc(NC[C@@H]4CCCN4Cc4ccc(Br)cc4)n3)CC2)cc(OC)c1OC` [Compound 2678-10], the half-maximal inhibitory concentration (IC50) reads like this: (Table 8, Run: Pure) 0.33 µM; (Table 9) 0.051 µM; (Table 9, same result in μM) 0.051 µM. Under “Table 11, compound of the disclosure”, this molecule came in with a KD/IC50 of 330 nM.

For `CCCCCC(=O)N1CCN(Cc2csc(NC[C@@H]3CCCN3CCCc3nc4ccccc4[nH]3)n2)CC1` [Compound 2678-32], the IC50 (Table 8, Run: Pure (70% Pure)) was found to be 7.9 µM.

Take `Cc1cnc(C(=O)N2CCN(Cc3csc(NC[C@@H]4CCCN4Cc4ccc(F)cc4)n3)CC2)cn1` [Compound 2678-51]: the IC50 (Table 8, Run: Pure) was 8.7 µM.

`COc1ccc(CN2CCC[C@H]2CNc2nc(CN3CCN(C(=O)c4cnc(C)cn4)CC3)cs2)cc1OC` [Compound 2678-53]: the IC50 (Table 8, Run: Pure) turned out to be 53 µM.

As for `CC(Oc1ccccc1)C(=O)N1CCN(Cc2csc(NC[C@@H]3CCCN3Cc3ccc(Br)cc3)n2)CC1` (stereo partly drawn) [Compound 2678-58], where the note is “Table 8, Run: Pure”, the IC50 was 0.8 µM.

As for `O=C(c1ccco1)N1CCN(Cc2csc(NC[C@@H]3CCCN3Cc3ccc(Br)cc3)n2)CC1` [Compound 2678-66], the concentration for half-maximal inhibition (IC50) (Table 8, Run: Pure) came out at 0.87 µM.

As to `O=C(c1ccco1)N1CCN(Cc2csc(NC[C@@H]3CCCN3CCCc3nc4ccccc4[nH]3)n2)CC1` [Compound 2678-72], the IC50 (Table 8, Run: Pure (70% Pure)) turned out to be 11 µM.

On to `O=C(CCc1nc2ccccc2[nH]1)N1CCN(Cc2csc(NCC3CC(OCc4ccccc4)CN3Cc3ccc(Br)cc3)n2)CC1` (stereo not drawn) [Compound 2678-78], for which, where the note is “Table 8, Run: Pure”, the half-inhibitory concentration (IC50) was 1.6 µM.

As to `COc1cc(C(=O)N2CCN(Cc3csc(NCC4CC(OCc5ccccc5)CN4Cc4ccc(Br)cc4)n3)CC2)cc(OC)c1OC` (stereo not drawn) [Compound 2678-80], for the setting “Table 8, Run: Pure”, the IC50 amounted to 0.5 µM.

Take `COc1cc(C(=O)N2CCN(Cc3csc(NC[C@@H]4CCCN4Cc4ccc(C(F)(F)F)cc4)n3)CC2)cc(OC)c1OC` [Compound A302]: the IC50 (Table 9) was determined as 0.14 µM and the IC50 (Table 9, same result in μM) is 0.14 µM.

On to `COc1cc(C(=O)N2CCN(Cc3csc(NC[C@@H]4CCCN4Cc4ccc(C5CC5)cc4)n3)CC2)cc(OC)c1OC` [Compound A303], for which the IC50 was 9.1 µM (Table 9) and 9.1 µM (Table 9, same result in μM).

As for `COc1cc(C(=O)N2CCN(Cc3csc(NC[C@@H]4CCCN4Cc4ccc(C)cc4)n3)CC2)cc(OC)c1OC` [Compound A304], the IC50 came out at 3.5 µM (Table 9) and 3.5 µM (Table 9, same result in μM).

For the molecule `COc1cc(C(=O)N2CCN(Cc3csc(NC[C@@H]4CCCN4Cc4cccc(Br)c4)n3)CC2)cc(OC)c1OC` [Compound A305], the IC50 by setting is: (Table 9) 36 µM; (Table 9, same result in μM) 36 µM.

As to `COc1cc(C(=O)N2CCN(Cc3csc(NC[C@@H]4CCCN4Cc4ccccc4Br)n3)CC2)cc(OC)c1OC` [Compound A306], the IC50 was 40 µM (Table 9) and 40 µM (Table 9, same result in μM).

Take `COc1ccc(CN2CCC[C@H]2CNc2nc(CN3CCN(C(=O)c4cc(OC)c(OC)c(OC)c4)CC3)cs2)cc1` [Compound A307]: the IC50 is, setting by setting: (Table 9) 9.2 µM; (Table 9, same result in μM) 9.2 µM.

On to `COc1cc(C(=O)N2CCN(Cc3csc(NC[C@@H]4CCCN4Cc4ccc(S(C)(=O)=O)cc4)n3)CC2)cc(OC)c1OC` [Compound A308], for which the concentration for half-maximal inhibition (IC50) was found to be 0.69 µM (Table 9) and 0.69 µM (Table 9, same result in μM).

For the molecule `COc1cc(C(=O)N2CCN(Cc3csc(NC[C@@H]4CCCN4Cc4ccncc4)n3)CC2)cc(OC)c1OC` [Compound A309], the concentration for half-maximal inhibition (IC50) stood at 10.4 µM (Table 9) and 10 µM (Table 9, same result in μM).

As for `COc1cc(C(=O)N2CCN(Cc3csc(NC[C@@H]4CCCN4Cc4cnc(C)s4)n3)CC2)cc(OC)c1OC` [Compound A310], the IC50 reads like this: (Table 9) 26 µM; (Table 9, same result in μM) 26 µM.

For the molecule `COc1cc(C(=O)N2CCN(Cc3csc(NC[C@@H]4CCCN4Cc4nnc(C)s4)n3)CC2)cc(OC)c1OC` [Compound A311], the half-maximal inhibitory concentration (IC50) is over 50 µM (Table 9) and over 50 µM (Table 9, same result in μM).

In the case of `COc1cc(C(=O)N2CCN(Cc3csc(NC[C@@H]4CCCN4Cc4ccncn4)n3)CC2)cc(OC)c1OC` [Compound A312], the IC50 (Table 9) was over 50 µM and the 50% inhibitory concentration (IC50) (Table 9, same result in μM) was over 50 µM.

For the molecule `COc1ccc(C(=O)N2CCN(Cc3csc(NC[C@@H]4CCCN4Cc4ccc(Br)cc4)n3)CC2)cc1` [Compound A401], the IC50 by setting is: (Table 9) 1.2 µM; (Table 9, same result in μM) 1.2 µM.

As for `COc1ccc(C(=O)N2CCN(Cc3csc(NC[C@@H]4CCCN4Cc4ccc(Br)cc4)n3)CC2)cc1OC` [Compound A402], the IC50 reads like this: (Table 9) 0.62 µM; (Table 9, same result in μM) 0.62 µM.

Regarding `COc1cccc(C(=O)N2CCN(Cc3csc(NC[C@@H]4CCCN4Cc4ccc(Br)cc4)n3)CC2)c1` [Compound A403], the concentration for half-maximal inhibition (IC50) (Table 9) came to 0.53 µM and the IC50 (Table 9, same result in μM) worked out at 0.53 µM.

For `O=C(c1ccc2c(c1)OCO2)N1CCN(Cc2csc(NC[C@@H]3CCCN3Cc3ccc(Br)cc3)n2)CC1` [Compound A404], the IC50 runs as follows: (Table 9) 0.88 µM; (Table 9, same result in μM) 0.88 µM.

`O=C(c1ccc(=O)[nH]c1)N1CCN(Cc2csc(NC[C@@H]3CCCN3Cc3ccc(Br)cc3)n2)CC1` [Compound A405]: the IC50 runs as follows: (Table 9) 0.247 µM; (Table 9, same result in μM) 0.25 µM.

On to `Cn1cnc2cc(C(=O)N3CCN(Cc4csc(NCC5CCCN5Cc5ccc(Br)cc5)n4)CC3)ccc21` (stereo not drawn) [Compound A406], for which the IC50 (Table 9) was 0.98 µM and the half-inhibitory concentration (IC50) (Table 9, same result in μM) is 0.98 µM.

Turning to `Cn1ncc2cc(C(=O)N3CCN(Cc4csc(NC[C@@H]5CCCN5Cc5ccc(Br)cc5)n4)CC3)ccc21` [Compound A407], the IC50 runs as follows: (Table 9) 0.49 µM; (Table 9, same result in μM) 0.49 µM.

For the molecule `COc1cc(CN2CCN(Cc3csc(NCC4CCCN4Cc4ccc(Br)cc4)n3)CC2)cc(OC)c1OC` (stereo not drawn) [Compound A501], the IC50 reads like this: (Table 9) 0.74 µM; (Table 9, same result in μM) 0.74 µM.

Regarding `CC(=O)N1CCN(Cc2csc(NC[C@@H]3CCCN3Cc3ccc(Br)cc3)n2)CC1` [Compound A503], the IC50 was found to be 2.6 µM (Table 9) and 0.26 µM (Table 9, same result in μM).

As to `O=C(C1CC1)N1CCN(Cc2csc(NC[C@@H]3CCCN3Cc3ccc(Br)cc3)n2)CC1` [Compound A504], the IC50 (Table 9) is 2 µM and the IC50 (Table 9, same result in μM) is 2 µM.

Consider `COc1cc(CN2CCN(Cc3csc(NCC4CCCN4Cc4ccccc4)n3)CC2)cc(OC)c1OC` (stereo not drawn) [Compound A505], for which the IC50 is over 50 µM (Table 9) and over 50 µM (Table 9, same result in μM).

As to `COc1cc(CN2CCN(Cc3csc(NCC4CCCN4CC4CC4)n3)CC2)cc(OC)c1OC` (stereo not drawn) [Compound A506], the IC50 was over 50 µM (Table 9) and over 50 µM (Table 9, same result in μM).

Take `COc1cc(CN2CCN(Cc3csc(NCC4CCCN4C(C)c4ccc(Br)cc4)n3)CC2)cc(OC)c1OC` (stereo not drawn) [Compound A601]: the half-inhibitory concentration (IC50) was 0.159 µM (Table 9) and 0.16 µM (Table 9, same result in μM).

As to `COc1cc(CN2CCN(Cc3csc(NCC4CCCN4C(C)c4ccc(Br)cc4)n3)CC2)cc(OC)c1OC` (stereo not drawn) [Compound A602], the IC50 turned out to be 0.324 µM (Table 9) and 0.32 µM (Table 9, same result in μM).
